In patent publication US10000507B2, “Furo- and thieno-pyridine carboxamide compounds useful as pim kinase inhibitors” (Incyte Corporation, priority 2013, dated 2018):

How the values were obtained:
Assay type in all cases: biochemical
Pim-1 = Pim-1 (Homo sapiens (Human), UniProt P11309); experiment: Pim-1 kinase assay; details: 1 mM ATP, biotin-labeled BAD peptide substrate; read-out: Pim1 IC50
Method in brief: (§1)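 Biotin-BAD peptide ([…]) phosphorylated with 1 mM ATP by 2.5 pM Pim-1 or 1.25 pM Pim-3, 1 h at 25 °C in Tris pH 7.5, MgCl2, DTT buffer. EDTA stop with anti-phospho-BAD (Ser112) antibody and AlphaScreen streptavidin donor/Protein-A acceptor beads; signal read after 1 h dark incubation.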

Pim-2 = Pim-2 (Homo sapiens (Human), UniProt Q9P1W9); experiment: Pim-2 kinase assay; details: 1 mM ATP, fluorescein-labeled CREBtide peptide substrate; read-out: Pim2 IC50
Method in brief: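 TR-FRET assay: 1 nM Pim-2 with 0.05 μM fluorescein-CREBtide and 1 mM ATP in Tris pH 7.5, 5 mM MgCl2, 5 mM DTT, 2 h at 25 °C. EDTA stop, then Tb-anti-pCREB Ser133 antibody for 30 min before reading.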

Pim-3 = Pim-3 (Homo sapiens (Human), UniProt Q86V86); experiment: Pim-3 kinase assay; details: 1 mM ATP, biotin-labeled BAD peptide substrate; read-out: Pim3 IC50
Method in brief: as §1

Sequence of Pim-2 (Q9P1W9 whole entry): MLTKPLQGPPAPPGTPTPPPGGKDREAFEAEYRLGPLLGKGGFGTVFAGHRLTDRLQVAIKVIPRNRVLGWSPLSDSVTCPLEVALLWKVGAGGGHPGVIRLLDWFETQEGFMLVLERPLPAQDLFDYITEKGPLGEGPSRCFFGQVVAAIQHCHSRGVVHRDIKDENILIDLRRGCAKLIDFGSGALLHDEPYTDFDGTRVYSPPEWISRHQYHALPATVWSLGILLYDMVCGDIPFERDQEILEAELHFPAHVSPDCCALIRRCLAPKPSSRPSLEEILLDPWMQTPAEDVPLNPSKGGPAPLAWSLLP
Sequence of Pim-1 (P11309 whole entry): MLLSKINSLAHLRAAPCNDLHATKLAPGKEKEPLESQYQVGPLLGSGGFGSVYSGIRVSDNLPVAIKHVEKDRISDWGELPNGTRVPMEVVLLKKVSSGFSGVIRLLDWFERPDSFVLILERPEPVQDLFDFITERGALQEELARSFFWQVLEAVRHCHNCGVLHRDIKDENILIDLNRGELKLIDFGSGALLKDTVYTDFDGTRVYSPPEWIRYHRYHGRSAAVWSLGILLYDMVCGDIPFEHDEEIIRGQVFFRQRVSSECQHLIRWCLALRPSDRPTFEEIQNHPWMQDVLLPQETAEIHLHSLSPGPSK

Compound | IC50 (Pim-1) | IC50 (Pim-2) | IC50 (Pim-3)
Nc1oc2cc(C3CCC3)cnc2c1C(=O)Nc1cnccc1N1C[C@@H](N)C[C@@H](C(F)(F)F)C1 [Example 98, 2-Amino-N-{4-[(3S,5R)-3-amino-5-(trifluoromethyl)piperidin-1-yl]pyridin-3-yl}-6-cyclobutylfuro[3,2-b]pyridine-3-carboxamide] | ≤ 10 nM | ≤ 10 nM | ≤ 10 nM
Nc1oc2cc(CN3CC(F)C3)cnc2c1C(=O)Nc1cnccc1N1C[C@@H](N)C[C@@H](C(F)(F)F)C1 [Example 99, 2-Amino-N-{4-[(3S,5R)-3-amino-5-(trifluoromethyl)piperidin-1-yl]pyridin-3-yl}-6-[(3-fluoroazetidin-1-yl)methyl]furo[3,2-b]pyridine-3-carboxamide] | ≤ 10 nM | 10 to 100 nM | ≤ 10 nM
Nc1oc2cc(CN3CC(F)(F)C3)cnc2c1C(=O)Nc1cnccc1N1C[C@@H](N)C[C@@H](C(F)(F)F)C1 [Example 100, 2-Amino-N-{4-[(3S,5R)-3-amino-5-(trifluoromethyl)piperidin-1-yl]pyridin-3-yl}-6-[(3,3-difluoroazetidin-1-yl)methyl]furo[3,2-b]pyridine-3-carboxamide] | ≤ 10 nM | 10 to 100 nM | ≤ 10 nM
Nc1oc2cc(CN3CC(O)C3)cnc2c1C(=O)Nc1cnccc1N1C[C@@H](N)C[C@@H](C(F)(F)F)C1 [Example 101, 2-Amino-N-{4-[(3S,5R)-3-amino-5-(trifluoromethyl)piperidin-1-yl]pyridin-3-yl}-6-[(3-hydroxyazetidin-1-yl)methyl]furo[3,2-b]pyridine-3-carboxamide] | ≤ 10 nM | 10 to 100 nM | ≤ 10 nM
CC(C)c1cnc2c(C(=O)Nc3cnccc3N3C[C@@H](N)[C@@H](n4ccnn4)[C@@H](C)C3)c(N)oc2c1 [Example 102, 2-Amino-N-{4-[(3R,4S,5S)-3-amino-5-methyl-4-(1H-1,2,3-triazol-1-yl)piperidin-1-yl]pyridin-3-yl}-6-isopropylfuro[3,2-b]pyridine-3-carboxamide] | ≤ 10 nM | 10 to 100 nM | ≤ 10 nM
COC1CCN(Cc2cnc3c(C(=O)Nc4cnccc4N4C[C@@H](N)C[C@@H](C(F)(F)F)C4)c(N)oc3c2)C1 (stereo partly drawn) [Example 103, 2-Amino-N-{4-[(3S,5R)-3-amino-5-(trifluoromethyl)piperidin-1-yl]pyridin-3-yl}-6-[(3-methoxypyrrolidin-1-yl)methyl]furo[3,2-b]pyridine-3-carboxamide] | ≤ 10 nM | 10 to 100 nM | ≤ 10 nM
CCOC1CCN(Cc2cnc3c(C(=O)Nc4cnccc4N4C[C@@H](N)C[C@@H](C(F)(F)F)C4)c(N)oc3c2)C1 (stereo partly drawn) [Example 104, 2-Amino-N-{4-[(3S,5R)-3-amino-5-(trifluoromethyl)piperidin-1-yl]pyridin-3-yl}-6-[(3-ethoxypyrrolidin-1-yl)methyl]furo[3,2-b]pyridine-3-carboxamide] | ≤ 10 nM | 10 to 100 nM | ≤ 10 nM
Nc1oc2cc(CN3CC[C@@H](F)C3)cnc2c1C(=O)Nc1cnccc1N1C[C@@H](N)C[C@@H](C(F)(F)F)C1 [Example 105, 2-Amino-N-{4-[(3S,5R)-3-amino-5-(trifluoromethyl)piperidin-1-yl]pyridin-3-yl}-6-{[(3R)-3-fluoropyrrolidin-1-yl]methyl}furo[3,2-b]pyridine-3-carboxamide] | ≤ 10 nM | 10 to 100 nM | ≤ 10 nM
Nc1oc2cc(CN3CC[C@H](F)C3)cnc2c1C(=O)Nc1cnccc1N1C[C@@H](N)C[C@@H](C(F)(F)F)C1 [Example 106, 2-Amino-N-{4-[(3S,5R)-3-amino-5-(trifluoromethyl)piperidin-1-yl]pyridin-3-yl}-6-{[(3S)-3-fluoropyrrolidin-1-yl]methyl}furo[3,2-b]pyridine-3-carboxamide] | ≤ 10 nM | 10 to 100 nM | ≤ 10 nM
COC1CCN(Cc2cnc3c(C(=O)Nc4cnccc4N4C[C@@H](N)C[C@@H](C(F)(F)F)C4)c(N)oc3c2)CC1 [Example 107, 2-Amino-N-{4-[(3S,5R)-3-amino-5-(trifluoromethyl)piperidin-1-yl]pyridin-3-yl}-6-[(4-methoxypiperidin-1-yl)methyl]furo[3,2-b]pyridine-3-carboxamide] | ≤ 10 nM | 10 to 100 nM | ≤ 10 nM
CN1CCN(Cc2cnc3c(C(=O)Nc4cnccc4N4C[C@@H](N)C[C@@H](C(F)(F)F)C4)c(N)oc3c2)CC1 [Example 108, 2-Amino-N-{4-[(3S,5R)-3-amino-5-(trifluoromethyl)piperidin-1-yl]pyridin-3-yl}-6-[(4-methylpiperazin-1-yl)methyl]furo[3,2-b]pyridine-3-carboxamide] | ≤ 10 nM | 10 to 100 nM | ≤ 10 nM
Cn1cc(-c2cnc3c(C(=O)Nc4cnccc4N4C[C@@H](N)C[C@@H](C(F)(F)F)C4)c(N)oc3c2)cn1 [Example 109, 2-Amino-N-{4-[(3S,5R)-3-amino-5-(trifluoromethyl)piperidin-1-yl]pyridin-3-yl}-6-(1-methyl-1H-pyrazol-4-yl)furo[3,2-b]pyridine-3-carboxamide] | ≤ 10 nM | 10 to 100 nM | ≤ 10 nM
C[C@@H]1C[C@H](N)CN(c2ccncc2NC(=O)c2c(N)oc3cc(-c4cnn(C)c4)cnc23)C1 [Example 110, 2-Amino-N-{4-[(3S,5R)-3-amino-5-methylpiperidin-1-yl]pyridin-3-yl}-6-(1-methyl-1H-pyrazol-4-yl)furo[3,2-b]pyridine-3-carboxamide] | ≤ 10 nM | 10 to 100 nM | ≤ 10 nM
Nc1oc2cc(-c3cncnc3)cnc2c1C(=O)Nc1cnccc1N1C[C@@H](N)C[C@@H](C(F)(F)F)C1 [Example 111, 2-Amino-N-{4-[(3S,5R)-3-amino-5-(trifluoromethyl)piperidin-1-yl]pyridin-3-yl}-6-pyrimidin-5-ylfuro[3,2-b]pyridine-3-carboxamide] | ≤ 10 nM | 10 to 100 nM | ≤ 10 nM
C[C@@H]1C[C@H](N)CN(c2ccncc2NC(=O)c2c(N)oc3cc(-c4cncnc4)cnc23)C1 [Example 112, 2-Amino-N-{4-[(3S,5R)-3-amino-5-methylpiperidin-1-yl]pyridin-3-yl}-6-pyrimidin-5-ylfuro[3,2-b]pyridine-3-carboxamide] | ≤ 10 nM | 10 to 100 nM | ≤ 10 nM
Nc1oc2cc(C3CC3)cnc2c1C(=O)Nc1cnccc1N1C[C@@H](N)C[C@@H](C(F)(F)F)C1 [Example 113, 2-Amino-N-{4-[(3S,5R)-3-amino-5-(trifluoromethyl)piperidin-1-yl]pyridin-3-yl}-6-cyclopropylfuro[3,2-b]pyridine-3-carboxamide] | ≤ 10 nM | ≤ 10 nM | ≤ 10 nM
C[C@@H]1C[C@H](N)CN(c2ccncc2NC(=O)c2c(N)oc3cc(C4CC4)cnc23)C1 [Example 114, 2-Amino-N-{4-[(3S,5R)-3-amino-5-methylpiperidin-1-yl]pyridin-3-yl}-6-cyclopropylfuro[3,2-b]pyridine-3-carboxamide] | ≤ 10 nM | ≤ 10 nM | ≤ 10 nM
Cc1cnc2c(C(=O)Nc3cnccc3N3C[C@@H](N)C[C@@H](C(F)(F)F)C3)c(N)oc2c1 [Example 115, 2-Amino-N-{4-[(3S,5R)-3-amino-5-(trifluoromethyl)piperidin-1-yl]pyridin-3-yl}-6-methylfuro[3,2-b]pyridine-3-carboxamide] | ≤ 10 nM | ≤ 10 nM | ≤ 10 nM
Cc1cnc2c(C(=O)Nc3cnccc3N3C[C@H](C)C[C@H](N)C3)c(N)oc2c1 [Example 116, 2-Amino-N-{4-[(3S,5R)-3-amino-5-methylpiperidin-1-yl]pyridin-3-yl}-6-methylfuro[3,2-b]pyridine-3-carboxamide] | ≤ 10 nM | 10 to 100 nM | ≤ 10 nM
CCc1cnc2c(C(=O)Nc3cnccc3N3C[C@H](C)C[C@H](N)C3)c(N)oc2c1 [Example 117, 2-Amino-N-{4-[(3S,5R)-3-amino-5-methylpiperidin-1-yl]pyridin-3-yl}-6-ethylfuro[3,2-b]pyridine-3-carboxamide] | ≤ 10 nM | ≤ 10 nM | ≤ 10 nM
CCc1cnc2c(C(=O)Nc3cnccc3N3C[C@@H](N)C[C@@H](C(F)(F)F)C3)c(N)oc2c1 [Example 118, 2-Amino-N-{4-[(3S,5R)-3-amino-5-(trifluoromethyl)piperidin-1-yl]pyridin-3-yl}-6-ethylfuro[3,2-b]pyridine-3-carboxamide] | ≤ 10 nM | ≤ 10 nM | ≤ 10 nM
C[C@@H]1C[C@H](N)CN(c2ccncc2NC(=O)c2c(N)oc3cc(-c4c(F)cccc4F)cnc23)C1 [Example 119, 2-Amino-N-{4-[(3S,5R)-3-amino-5-methylpiperidin-1-yl]pyridin-3-yl}-6-(2,6-difluorophenyl)furo[3,2-b]pyridine-3-carboxamide] | ≤ 10 nM | 10 to 100 nM | ≤ 10 nM
C[C@@H]1C[C@H](N)CN(c2ccncc2NC(=O)c2c(N)oc3cc(OC(F)F)cnc23)C1 [Example 120, 2-Amino-N-(4-((3S,5R)-3-amino-5-methylpiperidin-1-yl)pyridin-3-yl)-6-(difluoromethoxy)furo[3,2-b]pyridine-3-carboxamide] | ≤ 10 nM | 10 to 100 nM | ≤ 10 nM
